In patent publication EP0194158A2, “Anti-nicotine and anti-cotinine antibodies (monoclonal and other), and their uses in nicotine and cotinine assays” (Baylor College of Medicine, priority 1985, dated 1986):
Where two headings read alike, the source gives them in different places. Values belong to the compound of their own block, whether it stands above or below them.

Assays:
[1] = biological target: monoclonal antibody Anti-cotinine 305E5; assay: sandwich ELISA, inhibition of binding of monoclonal antibody to solid phase hapten (specificity); parameters: species or system mouse
Source text: (§1) Control values were less than 0.05 absorbance unit.

[2] = biological target: monoclonal antibody Anti-nicotine 402C10; assay: as above; parameters: species or system mouse
Source text: as §1

[3] = test system: Rabbit Antibody 482D (anti-cotinine); assay: Fluorescent (fluorometric) ELISA; format: binding; settings: nanograms of cotinine inhibitor required for 50% inhibition
[4] = biological target: monoclonal antibody Anti-cotinine 309G5, isotype IgG1k; assay: binding affinity constant K (method of R. Muller); parameters: species or system mouse; settings: value is K multiplied by 10^-8
[5] = biological target: monoclonal antibody Anti-cotinine 206F8, isotype IgAlambda; assay: binding affinity constant K (method of R. Muller); parameters: species or system mouse; settings: value is K multiplied by 10^-8
[6] = test system: Rabbit Antibody 494D (anti-cotinine); assay: Fluorescent (fluorometric) ELISA; format: binding; settings: nanograms of cotinine inhibitor required for 50% inhibition
Protocol: (§2) b. Fluorometric ELISA: The wells of polystyrene microtiter plates (Immulon 2; Dynatech Laboratories, Alexandria, VA) were coated respectively with 0.004 and 0.016 ug of polylysine-cotinine and polylysine-nicotine conjugate (0.1 ml) in 3 mM phosphate buffer, and incubated overnight at 4°C, pH 6.3. After aspiration, the wells were blocked with 0.2 ml casein buffer (0.01M Tris-buffered saline, pH 7.6., containing 0.01M EDTA and 0.2% vitamin-free casein (Nutritional Biochemicals, Cleveland, OH)) for 1 hour at room temperature, and then washed once with 0.2 ml of the same buffer and again aspirated. Assays were performed in 0.1 ml total volume per well using 0.050 ml diluted ascites (0.025 ml sample), and 0.025 ml nicotine or cotinine. Plates were incubated overnight at 4°C, washed three times with 0.2 ml casein buffer and then 0.1 ml biotin conjugated sheep anti-mouse IgG (Cooper Biomedical, Malvern, PA) diluted 1/250 with casein buffer was added. After incubation for 3 hours at room temperature, the plates were washed three times with 0.2 ml casein buffer, and streptavidin (0.5 ug) was added to each well, incubated for 1 hour at room temperature and washed as before. 0.1 ml of biotinylated alkaline phosphatase (Zymed, South San Francisco, CA) diluted 1/200 was added to each well, the plates were incubated for 1 hour at room temperature, washed with 0.2 ml PBS containing 0.05% Tween-20, and then washed three times with 0.2 ml of 0.01 M Tris-buffered saline, pH 7.6. 0.1 ml of substrate was added containing 2.5 mM 4-methylumbelliferyl phosphate dissolved in buffer containing diethanolamine (20% v/v) pH 10, 1 mM MgClz, and 9 mM levamisol. Fluorescence was measured with a Microfluor fluorometer (Dynatech Laboratories) at an excitation wavelength of 365 nm and emission wavelength of 450 nm. The plates were read right after substrate was added and again at 30 minute intervals. (Plates should be stored in the dark).

[7] = test system: Rabbit Antibody 113D (anti-cotinine); assay: Fluorescent (fluorometric) ELISA; format: binding; settings: nanograms of cotinine inhibitor required for 50% inhibition
Protocol: as §2

[8] = test system: Rabbit Antibody 495D (anti-cotinine); assay: Fluorescent (fluorometric) ELISA; format: binding; settings: nanograms of cotinine inhibitor required for 50% inhibition
Protocol: as §2

[9] = test system: the 6 cotinine antisera (rabbit); assay: ELISA with rabbit antisera, no second antibody; format: binding; settings: range over the 6 antisera
Source text: In these assays, no second antibody is required, because all rabbit IgG binds HRP-SpA (J.W. Goding, 20 J. Immunol. Methods 241 (1978)).

[10] = test system: Monoclonal Antibody 305E5 (anti-cotinine); assay: Fluorescent (fluorometric) ELISA; format: binding, mouse; settings: nanograms of cotinine inhibitor required for 50% inhibition
Protocol: as §2

[11] = test system: Monoclonal Antibody 308C11 (anti-cotinine); assay: Fluorescent (fluorometric) ELISA; format: binding, mouse; settings: nanograms of cotinine inhibitor required for 50% inhibition
Protocol: as §2

[12] = test system: Monoclonal Antibody 309G5 (anti-cotinine); assay: Fluorescent (fluorometric) ELISA; format: binding, mouse; settings: nanograms of cotinine inhibitor required for 50% inhibition
Protocol: as §2

[13] = test system: Monoclonal Antibody 206F8 (anti-cotinine); assay: Fluorescent (fluorometric) ELISA; format: binding, mouse; settings: nanograms of cotinine inhibitor required for 50% inhibition
Protocol: as §2

[14] = biological target: monoclonal antibody Anti-cotinine 305E5, isotype IgG2bk; assay: binding affinity constant K (method of R. Muller); parameters: species or system mouse; settings: value is K multiplied by 10^-8
[15] = biological target: monoclonal antibody Anti-cotinine 308C11, isotype IgG1k; assay: binding affinity constant K (method of R. Muller); parameters: species or system mouse; settings: value is K multiplied by 10^-8
[16] = test system: the 4 anticotinine antibodies (McAb); assay: sandwich ELISA, inhibition by homologous hapten, all anti-cotinine McAb; format: binding, mouse; settings: range over the 4 antibodies; each McAb diluted to give A490 1.0-1.2 without inhibitor
Protocol: as §1
Only 0.02 ng cotinine inhibited by 15%.

[17] = test system: Rabbit Antibody 481D (anti-cotinine); assay: Fluorescent (fluorometric) ELISA; format: binding; settings: nanograms of cotinine inhibitor required for 50% inhibition
[18] = test system: the 9 antinicotine antibodies (McAb)
Protocol: The specificity of two of the antibodies (anti-nicotine 402Cl0 and anti-cotinine 305E5) was analyzed,. using a modification of the sandwich ELISA technique, which technique is described in detail below. In essence, specificity was determined by discerning how much structually related substance need be added to inhibit binding of monoclonal antibody to solid phase hapten by 50%. The assays were carried out in wells coated with 0.012 ug nicotine- or cotinine-polylysine conjugate, and with anti-nicotine and anti-cotinine diluted 1:729,000.
The modification involved use of 0.01 m1 of serially diluted standard nicotine or cotinine, (known amounts of inhibitors to assess antibody specificity), or test samples (eg. saliva) added to 0.04 ml casein buffer before its incubation with monoclonal antibodies. Maximum A490 values (i.e., maximum antibody binding) were determined using casein buffer (0.01 ml) in place of inhibitor. […] Control values were less than 0.05 absorbance unit. […]
After the preparation, to determine McAb binding, 0.05 ml diluted ascites fluid was added to 0.05 ml casein buffer and the plates were incubated overnight at 4°C. […] Color development was stopped by addition of 0.05 ml 4N sulfuric acid, and the A490 nm values were measured in the ELISA reader.

[19] = test system: single rabbit antinicotine serum
Source text: Also developed were similar ELISAs using rabbit antisera, that being prepared as described in J.J. Langone et al., Biochemistry (1973) supra; J.J. Langone, H. Van Vunakis, Methods in Enzymology (1982) supra. In these assays, no second antibody is required, because all rabbit IgG binds HRP-SpA (J.W. Goding, 20 J. Immunol. Methods 241 (1978)).

[20] = biological target: monoclonal antibody Anti-nicotine 303C10, isotype IgG2k; settings: read-out: K; binding affinity constant; value is K multiplied by 10^-8
Protocol: (§3) The binding affinity constant (K; an indication of binding strength), was measured by the method described in R. Muller, 34 J. Immunol. Methods 345 (i980). The concentration of antibody in the ascites fluid was also measured by a method described in R. Muller, id.

[21] = biological target: monoclonal antibody Anti-nicotine 203G3, isotype IgMlambda; settings: read-out: K; binding affinity constant; value is K multiplied by 10^-8
Protocol: as §3

[22] = biological target: monoclonal antibody Anti-nicotine 302A12, isotype IgG1k; settings: read-out: K; binding affinity constant; value is K multiplied by 10^-8
Protocol: as §3

[23] = biological target: monoclonal antibody Anti-nicotine 402C10, isotype IgG2ak; settings: read-out: K; binding affinity constant; value is K multiplied by 10^-8
Protocol: as §3

[24] = biological target: monoclonal antibody Anti-nicotine 304A7, isotype IgG1lambda; settings: read-out: K; binding affinity constant; value is K multiplied by 10^-8
Protocol: as §3

[25] = biological target: monoclonal antibody Anti-nicotine 301C4, isotype IgG1lambda; settings: read-out: K; binding affinity constant; value is K multiplied by 10^-8
Protocol: as §3

[26] = biological target: monoclonal antibody Anti-nicotine 304A4, isotype IgG1k; settings: read-out: K; binding affinity constant; value is K multiplied by 10^-8
Protocol: as §3

[27] = biological target: monoclonal antibody Anti-nicotine 302G3, isotype IgG1lambda; settings: read-out: K; binding affinity constant; value is K multiplied by 10^-8
Protocol: as §3

[28] = biological target: monoclonal antibody Anti-nicotine 303C5, isotype IgG1lambda; settings: read-out: K; binding affinity constant; value is K multiplied by 10^-8
Protocol: as §3

[29] = wells coated with 0.012 ug cotinine-polylysine conjugate, anti-cotinine diluted 1:729,000, total volume 0.1 ml
[30] = wells coated with 0.012 ug nicotine-polylysine conjugate, anti-nicotine diluted 1:729,000, total volume 0.1 ml
[31] = at 700 ng, the highest amount printed in the cell

Compound: C[N+]1([O-])CCCC1c1cccnc1 (stereo not drawn) [nicotine N'-oxide]
Nanograms required for 50% inhibition [1, 29]: 490 Nanograms
Nanograms required for 50% inhibition [2, 30]: 81.0 Nanograms

Compound: c1cncc(C2=NCCC2)c1 [myosmine]
Nanograms required for 50% inhibition [1, 29]: 220 Nanograms
inhibition (per cent in brackets) [2, 31]: 13%
Nanograms required for 50% inhibition [2, 30]: > 700 Nanograms

Compound: (-)-cotinine N'-oxide
Nanograms required for 50% inhibition [1, 29]: 4.6 Nanograms
inhibition (per cent in brackets) ([2]; at the 1,000 ng level): 0%
Nanograms required for 50% inhibition [2, 30]: > 1,000 Nanograms

Compound: CN1C(=O)CC[C@H]1c1cccnc1 [(S)-(-)-cotinine]
I 50% [3]: 0.025 nanograms
Kd [4]: 1.32 nM
Kd [5]: 5.41 nM
I 50% [6]: 0.075 nanograms
I 50% [7]: 0.045 nanograms
I 50% [8]: 0.310 nanograms
50% inhibition values [9]: 0.3 to 1.2 ng
I 50% [10]: 0.024 nanograms
I 50% [11]: 0.033 nanograms
I 50% [12]: 0.015 nanograms
I 50% [13]: 0.255 nanograms
Kd [14]: 1.76 nM
Kd [15]: 3.21 nM
inhibition ([1]; 0.02 ng cotinine): 15%
Nanograms required for 50% inhibition [1, 29]: 0.12 Nanograms
Nanograms required for 50% inhibition [2, 30]: 1,000 Nanograms
50% inhibition [16]: 0.038 to 0.12 ng
I 50% [17]: 0.215 nanograms

Compound: c1cncc([C@@H]2CCCN2)c1 [(-)-nornicotine]
Nanograms required for 50% inhibition [1]: 50.0 Nanograms
Nanograms required for 50% inhibition [2]: 95.0 Nanograms

Compound: CN1CCC[C@H]1c1cccnc1 [(S)-(-)-nicotine]
Stereospecificity for (S)-(-)-nicotine ([18]; range over all 9 anti-nicotine McAb, versus R-(+)-nicotine): 5-45 fold
50% inhibition ([18]; range over the 9 antibodies, each McAb diluted to give A490 1.0-1.2 without inhibitor): 0.091 to 0.51 ng
required for 50% inhibition [19]: 3.9 ng
Kd [20]: 18.5 nM
Kd [21]: 20.8 nM
Kd [22]: 8 nM
Kd [23]: 8.26 nM
Kd [24]: 11.4 nM
Kd [25]: 9.71 nM
Kd [26]: 7.52 nM
Kd [27]: 6.17 nM
Kd [28]: 7.14 nM
inhibition [2]: 15%

Nanograms required for 50% inhibition [1, 29]: 6,950 Nanograms
Nanograms required for 50% inhibition [2, 30]: 5.4 Nanograms
Compound: CN1CCCC1CCO (stereo not drawn) [1-methyl-2-pyrrolidine ethanol]

Compound: CCN1CCCC1c1cccnc1 (stereo not drawn) [N-ethylnornicotine]
inhibition (per cent in brackets) ([1]; at the 1,000 ng level): 44%
Nanograms required for 50% inhibition [1, 29]: > 1,000 Nanograms
Nanograms required for 50% inhibition [2, 30]: 5.4 Nanograms

Compound: O=C1CCC(c2cccnc2)N1 (stereo not drawn) [desmethylcotinine]
fold more required for 50% inhibition compared to homologous hapten ([1]; ratio to (S)-(-)-cotinine): 13 fold
Nanograms required for 50% inhibition [1, 29]: 1.6 Nanograms
Nanograms required for 50% inhibition [2, 30]: 10,000 Nanograms

Compound: CN1CCC[C@@H]1c1cccnc1 [(R)-(+)-nicotine]
Nanograms required for 50% inhibition [1]: 320 Nanograms
Nanograms required for 50% inhibition [2]: 6.4 Nanograms
times more required for 50% inhibition than (S)-(-)-nicotine [2]: Twenty-five

Compound: CN1CCCC1c1ccc(O)nc1 (stereo not drawn) [6-hydroxynicotine]
Nanograms required for 50% inhibition [1, 29]: 330 Nanograms
times more required for 50% inhibition than (S)-(-)-nicotine ([2]; ratio to the naturally occurring isomer): 5 fold
Nanograms required for 50% inhibition [2, 30]: 1.3 Nanograms

Compound: CN1CCCC1c1ccc(N)nc1 (stereo not drawn) [6-aminonicotine]
Nanograms required for 50% inhibition [1, 29]: 8,500 Nanograms
Nanograms required for 50% inhibition [2, 30]: 35.0 Nanograms

Compound: O=NN1CCCC1c1cccnc1 (stereo not drawn) [N'-nitrosonornicotine]
Nanograms required for 50% inhibition [1, 29]: 6.5 Nanograms
inhibition (per cent in brackets) [2, 31]: 31%
Nanograms required for 50% inhibition [2, 30]: > 700 Nanograms

Compound: CN1CCCC1c1cccnc1N (stereo not drawn) [2-aminonicotine]
Nanograms required for 50% inhibition [1, 29]: 1,700 Nanograms
Nanograms required for 50% inhibition [2, 30]: 14.0 Nanograms

Nanograms required for 50% inhibition [1, 29]: 410 Nanograms
Nanograms required for 50% inhibition [2, 30]: 1,920 Nanograms
Compound: O=C(O)CCC(=O)c1cccnc1 [gamma-(3-pyridyl-gamma-oxobutyric acid]

Compound: c1cncc([C@@H]2CCCCN2)c1 [anabasine]
Nanograms required for 50% inhibition [1, 29]: 170 Nanograms
Nanograms required for 50% inhibition [2, 30]: 14.3 Nanograms
